Results on six molecules are retold here after the NIST ThermoML archive (doi:10.1021/acs.jced.5b00919).

Numbers after ± are expanded uncertainties.

The data set in a line: activity coefficient (dimensionless); of the first substance listed, at infinite dilution; xn = mol fraction of the nth substance listed. The conditions noted are these: 101 kPa, Liquid, Chromatography, x1 = 0.

Turning to `CCO` [ethanol] + CCCC[N+](C)(CCCC)CCCC.COS(=O)(=O)[O-], the activity coefficient reads like this: (338.15 K) 0.24 ± 0.03; (348.15 K) 0.2 ± 0.03; (358.15 K) 0.19 ± 0.03; (368.15 K) 0.17 ± 0.03.

For the molecule `CO` [methanol] + CCCC[N+](C)(CCCC)CCCC.COS(=O)(=O)[O-], the activity coefficient (338.15 K) was 0.16 ± 0.03, the activity coefficient (348.15 K) is 0.15 ± 0.03, the activity coefficient (358.15 K) was 0.14 ± 0.03 and the activity coefficient (368.15 K) turned out to be 0.13 ± 0.03.

For `CCC(C)O` (centres undefined) [butan-2-ol] + CCCC[N+](C)(CCCC)CCCC.COS(=O)(=O)[O-], the activity coefficient by setting is: (338.15 K) 0.38 ± 0.03; (348.15 K) 0.29 ± 0.03; (358.15 K) 0.24 ± 0.03; (368.15 K) 0.2 ± 0.03.

With `CCCCO` [butan-1-ol] + CCCC[N+](C)(CCCC)CCCC.COS(=O)(=O)[O-], the activity coefficient was determined as 0.4 ± 0.03 (338.15 K), 0.31 ± 0.03 (348.15 K), 0.25 ± 0.03 (358.15 K) and 0.22 ± 0.03 (368.15 K).

Turning to `CC(C)(C)O` [2-methylpropan-2-ol] + CCCC[N+](C)(CCCC)CCCC.COS(=O)(=O)[O-], the activity coefficient reads like this: (338.15 K) 0.32 ± 0.03; (348.15 K) 0.28 ± 0.03; (358.15 K) 0.25 ± 0.03; (368.15 K) 0.23 ± 0.03.

Turning to `CCCO` [propan-1-ol] + CCCC[N+](C)(CCCC)CCCC.COS(=O)(=O)[O-], the activity coefficient (338.15 K) came to 0.29 ± 0.03, the activity coefficient (348.15 K) was 0.24 ± 0.03, the activity coefficient (358.15 K) is 0.21 ± 0.03 and the activity coefficient (368.15 K) was 0.18 ± 0.03.
